Where “and” joins values, the source holds several entries; their conditions need not be identical. Equal values may be shown once.

The text below walks through data of patent EP1935986B1, “Luminogenic and fluorogenic compounds and methods to detect molecules or conditions” (priority 2005, dated 2006).

For assay [1], the target named is T1, QuantiLum Luciferase (Photinus pyralis, UniProt P08659).
T1 construct: purchased Promega Corporation E170
Put plainly: pH titration of firefly luciferase reaction with 7'-fluoroluciferin. The class given is biochemical.

The target of assay [2] is T1, QuantiLum Luciferase. The assay is described as follows: Emission spectra of luciferase reactions with luciferin, 5'-fluoroluciferin, 7'-fluoroluciferin. In kind it is biochemical, firefly. Particulars: reagent pH 7.4. On the procedure:
All compounds except fluoroluciferin and ATP were purchased from Sigma Chemical. ATP was purchased from Amersham/Invitrogen.
Spectra were measured using 0.5s integration with 1 nm increments on a Spex Fluorolog.

Assay [3] concerns the target T1, QuantiLum Luciferase. The assay is described as follows: ATP titration of firefly luciferase reactions with luciferin and fluoroluciferins. The class given is biochemical. To be noted: result in words. As to the method: All compounds except 5'-fluoroluciferin and DTT were purchased from Sigma Chemical. To some of this reagent 5 mM ATP (Amersham/Invitrogen) was added, then serially diluted by half-logs to 0.05 mM. Reactions were initiated by adding equal volumes (0.1 ml) of reagent and DMEM medium (Gibco/Invitrogen) containing 0.1% Prionex® (Pentapharm) and 1.4 x 10-5 mg/ml QuantiLum™ Luciferase (Promega Corporation).
For ATP titrations for 7'-fluoroluciferin, reagent was created containing 200 mM HEPES, 200 mM PIPES, 1 mM CDTA, 0.5% Tergitol NP-9, 0.03% Benzyl dodecyldimethyl ammonium bromide, 30 mM thiourea, 10 mM magnesium sulfate, and 0.15 mM 7'-fluoroluciferin. This solution was separated into 3 parts and pH of the reagents were 7.4, 7.2 and 6.7. To some of this reagent, 10 mM ATP (Amersham/Invitrogen) was added. The ATP was serially diluted by quarter-logs from 10 mM to 0.32 mM.
Reactions were initiated by adding equal volumes (0.03 ml) of reagent and DMEM medium (Gibco/Invitrogen) containing 0.1% Prionex® (Pentapharm) and 1.4 x 10-5 mg/ml QuantiLum™ Luciferase (Promega Corporation).
Luminescence was measured for 0.5 seconds per well using Berthold Orion luminometer.

A further assay deals with luciferase. The assay is described as follows: No-enzyme control: activity of luciferase towards the luciferin derivative (background luminescence). Particulars: Table 32; microsomes from wild type baculovirus infected insect cells instead of FMO; CHES pH 9.5, 4 hours; duplicates.
Assay [4] concerns human recombinant flavin-containing monooxygenase 1 (FMO 1). The assay is described as follows: Two-step luminescent FMO assay with luciferin derivative. In kind it is biochemical. To be noted: Table 32; CHES pH 9.5, NADPH regeneration, 4 hours room temperature; duplicates.
Assay [5] has as its system human recombinant flavin-containing monooxygenase 3 (FMO 3). The description is as above. The class given is biochemical. To be noted: Table 32; CHES pH 9.5, NADPH regeneration, 4 hours room temperature; duplicates.
The target of another assay is T2, CYP2D6 (Homo sapiens, UniProt P10635).
T2 construct: purchased Discovery Labware (BD/Gentest); host or cells: insect cell expression system (membrane fractions)
T2 sequence (P10635 whole entry): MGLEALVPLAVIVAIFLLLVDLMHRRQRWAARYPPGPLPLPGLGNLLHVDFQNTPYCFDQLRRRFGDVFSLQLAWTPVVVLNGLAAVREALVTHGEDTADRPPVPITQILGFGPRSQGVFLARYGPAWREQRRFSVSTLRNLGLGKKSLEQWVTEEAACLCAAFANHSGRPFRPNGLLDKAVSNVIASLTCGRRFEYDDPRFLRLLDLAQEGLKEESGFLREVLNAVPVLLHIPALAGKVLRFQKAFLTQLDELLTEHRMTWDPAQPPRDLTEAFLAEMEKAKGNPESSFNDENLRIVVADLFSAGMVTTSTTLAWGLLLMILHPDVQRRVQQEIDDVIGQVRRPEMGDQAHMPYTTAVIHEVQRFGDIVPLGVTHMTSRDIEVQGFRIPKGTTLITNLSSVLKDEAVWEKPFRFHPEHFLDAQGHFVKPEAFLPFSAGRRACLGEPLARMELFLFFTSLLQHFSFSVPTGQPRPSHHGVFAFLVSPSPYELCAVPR
The assay is described as follows: Screening inhibitors of CYP2D6 with luciferin-6-methylether ethylene glycol ester (IC50). In kind it is biochemical. To be noted: substrate luciferin-6-methylether ethylene glycol ester.

For assay [6], the target named is T3, human recombinant monoamine oxidase B (MAO B) (Homo sapiens, UniProt P27338).
T3 construct: purchased Sigma Chemical Company M-7441; host or cells: baculovirus infected insect cells (microsomes)
T3 sequence (P27338 1-520): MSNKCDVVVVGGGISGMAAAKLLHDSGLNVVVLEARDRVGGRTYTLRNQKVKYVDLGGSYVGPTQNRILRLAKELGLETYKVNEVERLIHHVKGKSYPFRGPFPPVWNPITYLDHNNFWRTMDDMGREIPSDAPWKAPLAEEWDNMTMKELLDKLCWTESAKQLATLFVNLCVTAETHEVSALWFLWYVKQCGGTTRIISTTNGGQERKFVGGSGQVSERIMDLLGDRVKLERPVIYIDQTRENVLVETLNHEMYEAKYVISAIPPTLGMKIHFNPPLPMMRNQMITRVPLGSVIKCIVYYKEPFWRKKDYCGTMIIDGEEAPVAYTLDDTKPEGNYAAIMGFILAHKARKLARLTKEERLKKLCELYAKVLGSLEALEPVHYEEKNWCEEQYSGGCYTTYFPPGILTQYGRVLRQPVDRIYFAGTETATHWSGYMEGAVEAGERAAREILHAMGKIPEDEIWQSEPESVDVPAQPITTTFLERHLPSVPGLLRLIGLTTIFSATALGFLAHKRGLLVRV
To be noted: published values; cited from earlier work.

Assay [7] addresses T4, human recombinant monoamine oxidase A (MAO A) (Homo sapiens, UniProt P21397).
T4 sequence (P21397 1-527): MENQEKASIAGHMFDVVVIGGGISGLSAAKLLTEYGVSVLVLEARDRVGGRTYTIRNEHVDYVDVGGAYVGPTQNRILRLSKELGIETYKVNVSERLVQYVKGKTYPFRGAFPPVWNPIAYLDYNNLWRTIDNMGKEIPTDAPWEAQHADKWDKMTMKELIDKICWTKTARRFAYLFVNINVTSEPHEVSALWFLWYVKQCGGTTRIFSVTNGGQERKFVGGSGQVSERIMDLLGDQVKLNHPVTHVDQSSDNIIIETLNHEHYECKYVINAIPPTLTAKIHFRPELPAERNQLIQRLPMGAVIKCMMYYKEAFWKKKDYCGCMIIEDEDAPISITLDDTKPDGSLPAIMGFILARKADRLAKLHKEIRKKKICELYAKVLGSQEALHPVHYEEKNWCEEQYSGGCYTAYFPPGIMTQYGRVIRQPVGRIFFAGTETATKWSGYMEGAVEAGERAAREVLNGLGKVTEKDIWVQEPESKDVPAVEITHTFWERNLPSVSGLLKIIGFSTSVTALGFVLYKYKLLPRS
Further details: purchased Sigma Chemical Company M-7316; host or cells: baculovirus infected insect cells (microsomes). Particulars: read-out: published values MAO A; cited from earlier work.

Assay [8] concerns equine alcohol dehydrogenase. Put plainly: Effect of inhibitors on the conversion of luciferol by equine alcohol dehydrogenase. To be noted: luciferol + equine ADH + NAD+ with 10 µl inhibitor solution, 37°C, 30 minutes; duplicate reactions #1, #2 (controls 1023, 1087). The class given is biochemical. On the procedure: Trichloroethanol solution: A 0.48 ml sample of 2,2,2, trichloroethanol (Aldrich T5480-5) was dissolved in water.
Duplicate reactions were assembled (see Table 19).
Reactions were initiated by addition of 1.5 µl of luciferol solution. Upon addition of the luciferol solution, the reactions were mixed and placed at 37°C.

T1 sequence (P08659 whole entry): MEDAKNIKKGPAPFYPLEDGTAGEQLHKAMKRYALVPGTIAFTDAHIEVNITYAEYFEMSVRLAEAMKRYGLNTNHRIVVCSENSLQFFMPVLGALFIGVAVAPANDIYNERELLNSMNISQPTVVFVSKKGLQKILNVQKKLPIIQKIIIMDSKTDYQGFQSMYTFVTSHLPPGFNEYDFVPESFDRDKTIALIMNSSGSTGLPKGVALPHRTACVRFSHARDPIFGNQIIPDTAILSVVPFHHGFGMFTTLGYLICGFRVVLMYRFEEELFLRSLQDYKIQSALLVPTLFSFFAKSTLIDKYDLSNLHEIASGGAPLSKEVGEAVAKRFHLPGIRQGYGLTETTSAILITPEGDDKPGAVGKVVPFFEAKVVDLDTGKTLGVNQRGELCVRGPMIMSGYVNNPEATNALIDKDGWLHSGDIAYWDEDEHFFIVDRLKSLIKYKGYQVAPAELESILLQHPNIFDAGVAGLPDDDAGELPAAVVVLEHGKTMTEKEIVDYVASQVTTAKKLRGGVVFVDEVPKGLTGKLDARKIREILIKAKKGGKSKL

Take `O=C(O)[C@H]1CSC(c2nc3ccc(O)c(F)c3s2)=N1` [7'-fluoroluciferin]: at QuantiLum Luciferase [1], the “pH optima for the firefly luciferase reaction” value is approximately 7.5 pH. Moreover, at QuantiLum Luciferase [2], the “λmax of luminescence, red-shifted from regular luciferin” value is “approximately 21 nm”. For the same compound, on QuantiLum Luciferase [3], the “ATP requirement of the luciferase reaction compared with luciferin” value was “requirement for ATP is much higher”.

Turning to `CCSCCOc1ccc2nc(C3=N[C@@H](C(=O)O)CS3)sc2c1` [FMO-2, 6-(2-ethylthioethoxy)-luciferin], the RLUs control in the assay on luciferase was 8.7102 RLUs and 8.5489 RLUs. Also, the “RLUs FMO 1” value in assay [4] is 11.778 RLUs and 12.006 RLUs. For the same compound, the “RLUs FMO 3” value in assay [5] is 12.194 RLUs and 10.425 RLUs.

In turn, `N=C(N)N1CCc2ccccc2C1` [debrisoquine] registered an IC50 against CYP2D6 of 77 µM.

Turning to `NCCc1ccccc1` [phenethylamine], the figures for the IC50 in assay [6] and in [7] were 2 to 150 µM and 78 to 280 µM, respectively.

As for `OCC(Cl)(Cl)Cl` [trichloroethanol, 2,2,2, trichloroethanol], in [8], the “Relative Light Units” value was 524.8 and 342.1.
